Measured values as given in patent publication US20190152962A1, “CYCLOPROPYL DERIVATIVES AS ROR-GAMMA MODULATORS” (CADILA HEALTHCARE LIMITED, priority 2016, published 2019).

How the values were obtained:
full length human RORγt = molecular target: T1, full length human RORγt (Homo sapiens, UniProt P51449); test: 5×RORE based luciferase assay; format: cell-based; conditions: COS-7 cells transfected with 5×RORE-Luc and hRORγt, 18-20 h treatment
T1 construct: full length human RORγt together in COS-7 cells; expressed in transfected cells; host or cells: COS-7
T1 sequence (P51449 1-497 isoform P51449-2): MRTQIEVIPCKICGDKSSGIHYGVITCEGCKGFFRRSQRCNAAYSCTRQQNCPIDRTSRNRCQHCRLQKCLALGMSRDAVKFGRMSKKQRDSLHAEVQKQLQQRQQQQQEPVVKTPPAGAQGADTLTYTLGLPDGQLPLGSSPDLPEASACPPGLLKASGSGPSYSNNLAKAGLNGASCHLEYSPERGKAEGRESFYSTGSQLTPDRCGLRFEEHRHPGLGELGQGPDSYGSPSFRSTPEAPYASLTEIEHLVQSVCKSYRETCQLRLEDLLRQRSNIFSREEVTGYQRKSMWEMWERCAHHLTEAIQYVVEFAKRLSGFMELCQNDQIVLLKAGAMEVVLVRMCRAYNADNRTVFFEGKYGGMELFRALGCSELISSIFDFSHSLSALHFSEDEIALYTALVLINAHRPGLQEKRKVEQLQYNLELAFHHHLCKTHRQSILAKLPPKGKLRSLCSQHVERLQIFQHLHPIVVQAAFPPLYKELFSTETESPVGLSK
Protocol: Human RORγt (hRORγt) inhibitors were screened in RORE (RORγt Response Element) based Luciferase assay by transient transfection of 5×RORE (5 tandem repeats of RORγt Response Element) and full length human RORγt together in COS-7 cells. COS-7 cells were maintained as monolayer in complete DMEM (High Glucose) medium in presence of 2 mM Glutamin and 1× Sodium Pyruvate. Day before transfection, 15000 cells were seeded in 96 well cell culture plate in 100 μl antibiotic free medium and incubated at 37° C. in 5% CO2 containing humidified chamber O/N. Prior to transfection, cells were fed with fresh complete growth medium and incubated until the addition of transfection complex. Transfection complex for the required numbers of wells were prepared from pGL2-promoter-5×RORE-Luc plasmid, pcDNA3.1 (+)-hRORγt expression plasmid, pβ-GAL plasmid (transfection control), and Lipofectamine 3000 (Invitrogen). 50 μl of transfection complex were added in 100 μl of complete medium to respective wells, mixed gently and plate was incubated for 5-6 h at 37° C. in 5% CO2 containing humidified chamber. After 5 h of transfection, content of the wells were aspirated and cells were treated with increasing concentration of RORγt inverse agonist in medium devoid of serum with a final DMSO concentration of 0.2% for 18-20 h at 37° C. in 5% CO2 containing humidified chamber. Next day, cells were lysed and the lysates were assayed for luciferase and β-GAL activity using Promega's luciferase assay system and an in-house made β-GAL assay buffer respectively. Luciferase signals were normalized with β-GAL and % activity was determined with respect to that of 10 nM control ligand.
IC50 of selected compounds were then determined by nonlinear regression analysis of % activity, plotted against compound concentration (Table 4).

[1] = tested on: secreted IL-17 in peripheral blood mononuclear cells (PBMCs); test: Human IL-17 inhibition assay; format: cell-based; conditions: PBMC, anti-CD3/anti-CD28, 72 h, read-out: IL17 IC50
Protocol: Peripheral blood mononuclear cells (PBMCs) were isolated from healthy volunteers and subjected to T cell polarization assay. Two million PBMCs were placed on anti-CD3 (Biolegend, US) coated 96-well plates and 1 μg/mL of anti-CD28 (Biolegend, US) was added along with RORγt inhibitors or the vehicle control and incubated at 37° C. and 5% CO2 for 72 h. At the end of incubation time, the supernatant was collected and analyzed for secreted IL-17 using sandwich enzyme immunoassay (Mabtech AB, Sweden). The results were analyzed using Graphpad Prism and the half-maximal inhibitory concentrations (IC50) of the test compounds were derived (Table 4).

IC50 (full length human RORγt)	Structure (SMILES)	IC50 [1]
5.8 nM	CCS(=O)(=O)c1ccc(CC(=O)Nc2cc(F)c(C3(c4noc(-c5ccc(F)cc5)n4)CC3)c(F)c2)cc1 [Example 28, N-(3,5-difluoro-4-(1-(5-(4-fluorophenyl)-1,2,4-oxadiazol-3-yl)cyclopropyl)phenyl)-2-(4-(ethylsulfonyl)phenyl)acetamide]	41.6 nM
19.4 nM	CCS(=O)(=O)c1ccc(CC(=O)Nc2cc(F)c(C3(c4noc(-c5ccc(F)cc5)n4)CC3)c(Cl)c2)cc1 [Example 29, N-(3-chloro-5-fluoro-4-(1-(5-(4-fluorophenyl)-1,2,4-oxadiazol-3-yl)cyclopropyl)phenyl)-2-(4-(ethylsulfonyl)phenyl)acetamide]	19 nM
12.6 nM	CCS(=O)(=O)c1ccc(CC(=O)Nc2cc(F)c(C3(c4noc(-c5ccc(C(F)(F)F)cc5)n4)CC3)c(Cl)c2)cc1 [Example 31, N-(3-chloro-5-fluoro-4-(1-(5-(4-(trifluoromethyl)phenyl)-1,2,4-oxadiazol-3-yl)cyclopropyl)phenyl)-2-(4-(ethylsulfonyl)phenyl)acetamide]	50 nM
5.96 nM	CCS(=O)(=O)c1ccc(CC(=O)Nc2cc(F)c(C3(c4noc(-c5ccc(C#N)cc5)n4)CC3)c(Cl)c2)cc1 [Example 32, N-(3-chloro-4-(1-(5-(4-cyanophenyl)-1,2,4-oxadiazol-3-yl)cyclopropyl)-5-fluorophenyl)-2-(4-(ethylsulfonyl)phenyl)acetamide]	18 nM
20.2 nM	CCS(=O)(=O)c1ccc(CC(=O)Nc2cc(C)c(C3(c4noc(-c5ccc(F)cc5)n4)CC3)c(C)c2)cc1 [Example 33, 2-(4-(ethylsulfonyl)phenyl)-N-(4-(1-(5-(4-fluorophenyl)-1,2,4-oxadiazol-3-yl)cyclopropyl)-3,5-dimethylphenyl)acetamide]	24 nM
2.3 nM	CCS(=O)(=O)c1ccc(CC(=O)Nc2cc(Cl)c(C3(c4nc(-c5ccc(F)cc5)no4)CC3)c(Cl)c2)cc1 [Example 35, N-(3,5-dichloro-4-(1-(3-(4-fluorophenyl)-1,2,4-oxadiazol-5-yl)cyclopropyl)phenyl)-2-(4-(ethylsulfonyl)phenyl)acetamide]	12 nM
2.44 nM	CCS(=O)(=O)c1ccc(CC(=O)Nc2cc(Cl)c(C3(c4nc5ccc(F)cc5o4)CC3)c(Cl)c2)cc1 [Example 36, N-(3,5-dichloro-4-(1-(6-fluorobenzo[d]oxazol-2-yl)cyclopropyl)phenyl)-2-(4-(ethylsulfonyl)phenyl)acetamide]	19 nM
1.5 nM	CCS(=O)(=O)c1ccc(CC(=O)Nc2cc(Cl)c(C3(c4ncc(-c5ccc(F)cc5)o4)CC3)c(Cl)c2)cc1 [Example 38, N-(3,5-dichloro-4-(1-(5-(4-fluorophenyl)oxazol-2-yl)cyclopropyl)phenyl)-2-(4-(ethylsulfonyl)phenyl)acetamide]	23 nM
22.5 nM	CCS(=O)(=O)c1ccc(CC(=O)Nc2cc(Cl)c(C3(c4ncc(-c5ccc(Cl)cc5)o4)CC3)c(Cl)c2)cc1 [Example 39, N-(3,5-dichloro-4-(1-(5-(4-chlorophenyl)oxazol-2-yl)cyclopropyl)phenyl)-2-(4-(ethylsulfonyl)phenyl)acetamide]	22 nM
0.76 nM	CCS(=O)(=O)c1ccc(CC(=O)Nc2cc(Cl)c(C3(c4noc(-c5ccc(F)cc5)n4)CC3)c(Cl)c2)nc1 [Example 41, N-(3,5-dichloro-4-(1-(5-(4-fluorophenyl)-1,2,4-oxadiazol-3-yl)cyclopropyl)phenyl)-2-(5-(ethylsulfonyl)pyridin-2-yl)acetamide]	15.5 nM
10.3 nM	CCS(=O)(=O)c1ccc(CC(=O)Nc2cc(Cl)c(C3(c4noc(-c5ccc(F)c(F)c5)n4)CC3)c(Cl)c2)nc1 [Example 44, N-(3,5-dichloro-4-(1-(5-(3,4-difluorophenyl)-1,2,4-oxadiazol-3-yl)cyclopropyl)phenyl)-2-(5-(ethylsulfonyl)pyridin-2-yl)acetamide]	43 nM
14.5 nM	CCS(=O)(=O)c1ccc(CC(=O)Nc2cc(Cl)c(C3(c4noc(-c5ccc(Cl)cc5)n4)CC3)c(Cl)c2)nc1 [Example 50, N-(3,5-dichloro-4-(1-(5-(4-chlorophenyl)-1,2,4-oxadiazol-3-yl)cyclopropyl)phenyl)-2-(5-(ethylsulfonyl)pyridin-2-yl)acetamide]	30 nM

Second part, the molecule before the results:

Structure (SMILES)	IC50 (full length human RORγt)	IC50 [1]
CCS(=O)(=O)c1ccc(CC(=O)Nc2cc(Cl)c(C3(c4noc(C5CC5)n4)CC3)c(Cl)c2)cc1 [Example 25, N-(3,5-dichloro-4-(1-(5-cyclopropyl-1,2,4-oxadiazol-3-yl)cyclopropyl)phenyl)-2-(4-(ethylsulfonyl)phenyl)acetamide]	1.5 nM	14 nM
CCS(=O)(=O)c1ccc(CC(=O)Nc2cc(Cl)c(C3(c4noc(C5CC(F)(F)C5)n4)CC3)c(Cl)c2)cc1 [Example 26, N-(3,5-dichloro-4-(1-(5-(3,3-difluorocyclobutyl)-1,2,4-oxadiazol-3-yl)cyclopropyl)phenyl)-2-(4-(ethylsulfonyl)phenyl)acetamide]	2.5 nM	7.3 nM
CCS(=O)(=O)c1ccc(CC(=O)Nc2cc(Cl)c(C3(c4noc(C5CCOCC5)n4)CC3)c(Cl)c2)cc1 [Example 27, N-(3,5-dichloro-4-(1-(5-(tetrahydro-2H-pyran-4-yl)-1,2,4-oxadiazol-3-yl)cyclopropyl)phenyl)-2-(4-(ethylsulfonyl)phenyl)acetamide]	13 nM	10.8 nM
CCS(=O)(=O)c1ccc(CC(=O)Nc2cc(Cl)c(C3(c4noc(-c5ccc(F)cc5Cl)n4)CC3)c(Cl)c2)nc1 [Example 46, N-(3,5-dichloro-4-(1-(5-(2-chloro-4-fluorophenyl)-1,2,4-oxadiazol-3-yl)cyclopropyl)phenyl)-2-(5-(ethylsulfonyl)pyridin-2-yl)acetamide]	12.9 nM	17.1 nM
CCS(=O)(=O)c1ccc(CC(=O)Nc2cc(Cl)c(C3(c4noc(-c5ccc(F)c(Cl)c5)n4)CC3)c(Cl)c2)nc1 [Example 47, N-(3,5-dichloro-4-(1-(5-(3-chloro-4-fluorophenyl)-1,2,4-oxadiazol-3-yl)cyclopropyl)phenyl)-2-(5-(ethylsulfonyl)pyridin-2-yl)acetamide]	10.1 nM	17.9 nM
CCS(=O)(=O)c1ccc(CC(=O)Nc2cc(Cl)c(C3(c4noc(-c5ccc(Cl)c(Cl)c5)n4)CC3)c(Cl)c2)nc1 [Example 48, N-(3,5-dichloro-4-(1-(5-(3,4-dichlorophenyl)-1,2,4-oxadiazol-3-yl)cyclopropyl)phenyl)-2-(5-(ethylsulfonyl)pyridin-2-yl)acetamide]	10.5 nM	38.9 nM
CCS(=O)(=O)c1ccc(CC(=O)Nc2cc(Cl)c(C3(c4noc(-c5ccc(Cl)cc5Cl)n4)CC3)c(Cl)c2)nc1 [Example 49, N-(3,5-dichloro-4-(1-(5-(2,4-dichlorophenyl)-1,2,4-oxadiazol-3-yl)cyclopropyl)phenyl)-2-(5-(ethylsulfonyl)pyridin-2-yl)acetamide]	4.7 nM	17 nM
CCS(=O)(=O)c1ccc(CC(=O)Nc2cc(Cl)c(C3(c4noc(-c5cccc(Cl)c5)n4)CC3)c(Cl)c2)nc1 [Example 51, N-(3,5-dichloro-4-(1-(5-(3-chlorophenyl)-1,2,4-oxadiazol-3-yl)cyclopropyl)phenyl)-2-(5-(ethylsulfonyl)pyridin-2-yl)acetamide]	12.1 nM	16 nM
